From patent publication US6130220A, “Sulfamide-metalloprotease inhibitors” (Syntex (USA) Inc., priority 1999, dated 2000)

Key:
Collagenase-III = assay: MMP enzymatic assay, hydrolysis of MCA-Pro-Leu-Gly-Leu-DPA-Ala-Arg-NH2, Collagenase-III; format: biochemical; settings: 37° C., pH 7.5, 2.5% DMSO
Method: The propeptide and catalytic domain portion of human collagenase-3 was expressed in E. Coli as an N-terminal fusion protein with ubiquitin. After purification, the catalytic domain was released by treatment with 1 mM APMA for 1 hour at 37° C., and then purified by zinc chelate chromatography.
Rat collagenase-3 was purified in active form from the culture media of uterine smooth muscle cells as described in Roswit, W. T. et al., Arch. Biochem. Biophys., 225, 285-295 (1983).
The matrix metalloprotease inhibitory activity of compounds of this invention in vitro was determined based on the hydrolysis of MCA-Pro-Leu-Gly-Leu-DPA-Ala-Arg-NH2 (Bachem, Inc.) at 37° C. as described in Knight, C. G., et al., FEBS Lett., 296, 263-266 (1992).
The matrix metalloprotease enzyme was diluted with assay buffer (50 mM Tricine pH 7.5, 200 mM NaCl, 10 mM CaCl2, and 0.005% Brij-35) containing 10 μmole of above substrate dissolved in DMSO. Compounds of the invention dissolved in DMSO or only DMSO (control samples) were added such that the final DMSO concentration in all assays was 2.5%. The fluorescence changes were monitored with a Perkin-Elmer LS-50B flourimeter using an excitation wavelength of 328 nm and an emission wavelength of 393 nm.

[1] = system: TNF-α release from Human Monomac 6 cells; assay: Inhibition of TNF release in vitro, Monomac 6 cells, LPS/PMA; format: cell-based; settings: 2 h; for inhibition at 2 µM: MONO-MAC-6, 2 μM, read-out: TNF-α % inhibition, Conc. 2 μM; for inhibition at 10 µM: MONO-MAC-6, 10 μM, read-out: TNF-α % inhibition, Conc. 10 μM
Method: The activity of compounds of this invention in inhibiting the TNF release was determined, using the a minor modification of the method described in Pradines-Figueres, A. and Raetz, C. R. H., J. Biol. Chem., 267 (32), 23261, (1992).
Human Monomac 6 cells (Ziegler-Heitbrock, H. W. L., et al., Int. J. Cancer, 41, 456, (1988)) were cultured at 37° C. in RPMI 1640 medium containing 10% fetal calf serum to a density of 1×10^5 cells/ml. 0.23 ml of these cells were placed in each well of a tissue culture plate and the cells were incubated for 15 min. The test compounds were dissolved in above mentioned medium and added and the incubation was continued for an additional 15 min. 10 μl of an lipopolysaccharide/phorbol-12-myristate-13-acetate (LPS/PMA) mixture was added such that the final concentration of lipopolysaccharide was 10 ng/ml and the final concentration of phorbol-12-myristate-13-acetate was 30 ng/ml. The cells were incubated for 2 h after which the plate was centrifuged and the medium was removed and analyzed for TNF content. The analysis was performed using a TNF Quantikine® Inmunoassay (R & D Systems, Minneapolis, Minn. 55413) by following the manufacturer's protocol.
The TNF-α inhibitory activity of test materials, i.e., the measure of the TNF-α content in the test group relative to the vehicle treated group (control group) was: […]

TNF-α = assay: Inhibition of LPS induced TNF-α production in mice in vivo; settings: s.c. compound, LPS 50 μg/mouse i.p. 1 h later, blood after 1.5 h
Method: The activity of compounds of this invention in inhibiting the TNF-α release was determined, using a minor modification of the methods described in Zanetti, G.; Heumann, D., et. al., "Cytokine production after intravenous or peritoneal Gram-negative bacterial challenge in mice" J. Immunol., 148, 1890, (1992) and Sekut, L., Menius, J. A., et. al., "Evaluation if the significance of elevated levels of systemic and localized tumor necrosis factor in different animal models of inflammation" J. Lab. Clin. Med., 124, 813, (1994).
Female Balbic mice were anesthetized and injected subcutaneously with the test compounds dissolved in CMC vehicle or hydroxypropylmethyl cellulose based vehicle. Control animals received only the vehicle. After 1 h, LPS (50 μg/mouse, Sigma #13129, Sigma Chemical Co., St. Louis, Mo.) was injected intraperitoneally. After 1.5 h, blood was collected from the retro-rbital plexus region of the animals in a miicrotainer serum separator tube (Becton Dickinson, Cat. No. #5960, Becton Dickinson & Co., Franklin Lakes, N.J.). The sera was separated and the amount of TNF-α was determined using the EM-TNFA® kit (Endogen, Woburn, Mass.) by following the manufacturer's protocol.

[2] = system: collagen matrix of cartilage explants; assay: Degradation of cartilage plug in vitro (hydroxyproline release); format: cell-based; settings: bovine knee cartilage explants, IL-1-α 20 ng/ml, compounds at 10 to 300 nm, 21 days, hydroxyproline content vs control
Method: The ability of the compounds of this invention to inhibit the degradation of the collagen matrix (as judged by release of hydroxyproline) was determined by the cartilage plug degradation assay in vitro by following a slight modification of the method described in Spirito, S., Doughty, E., et al., "Metalloproteinase inhibitors halt collagen breakdown in IL-1 induced bovine nasal cartilage cultures" Inflamm. Res., 44, Supp. 2: S131-S132, (1995).
Cartilage explants prepared from freshly sacrificed bovine knee joints were added to the culture medium (Dubelco's modified eagle medium, Gibco #21063-001, Gibco BRL Products, Gaithersburg, Md.), without phenol red, but with HEPES, and L-glutamine and fungizone 2.5 μglml, gentamicin 50 μg/ml, penicillin 100 U/ml, and streptomycin 100 μg/ml). The cultures were stimulated with IL-1-α at a final concentration of 20 ng/ml. Compounds of Formula (I), were added at concentrations between 10 and 300 nm in DMSO. The control samples contained only IL-1-α. The cultures were incubated at 37° C. in an atmosphere of air with 6% CO2 for 21 days during which time the medium was changed twice/week. The cartilage plugs were removed, hydrolyzed and the hydroxyproline content was determined. The MMP inhibitory activity of test materials is the measure of the hydroxyproline content in the test group relative to the vehicle treated group (control group).

[3] = system: collagen matrix of bovine nasal cartilage plugs; assay: Cartilage plug degradation in vivo (cartilage plug implant assay); settings: female Lewis rats, implanted bovine nasal cartilage plugs, hydroxyproline content vs vehicle, 8 or 9 days

Row | IC50 (Collagenase-III) [nM] | Structure (SMILES) | inhibition at 2 µM [1] [%] | TNF-α % inhibition (TNF-α) [%] | inhibition at 10 µM [1] [%] | % protection [2] [%] | % protection [3] [%]
1 | 0.13 | O=CN1CCN(S(=O)(=O)N2CCC(C(=O)c3ccc(Cl)cc3)CC2)C(C(=O)NO)C1 (racemic) [compound 262, N-hydroxy-1-[4-(4-chlorobenzoyl)piperidine-1-sulfonyl]-4-formylpiperazine-2-(RS)-carboxamide] | 90 | 50 | – | – | –
2 | 1.3 | CC(C)[C@@H](NS(=O)(=O)N1CCN(c2ccc(Cl)cn2)CC1)C(=O)NO [compound 50, N-hydroxy-2-(R)-{[4-(5-chloropyridin-2-yl)piperazine-1-sulfonyl]amino}-3-methylbutyramide] | – | – | < 15 | 71 | 70
3 | 2.6 | CC(C)[C@@H](NS(=O)(=O)N1CCN(c2ccc(Cl)cc2)CC1)C(=O)NO [compound 51, N-hydroxy-2-(R)-{[4-(4-chlorophenyl)piperazine-1-sulfonyl]amino}-3-methylbutyramide] | – | – | – | 35 | 45
4 | 0.18 | CC(C)[C@@H](NS(=O)(=O)N1CCC(Oc2ccc(Cl)cc2)CC1)C(=O)NO [compound 59, N-hydroxy-2-(R)-{[4-(4-chlorophenoxy)piperidine-1-sulfonyl]amino}-3-methylbutyramide] | – | – | – | 54 | 58
5 | – | CC(C)[C@@H](NS(=O)(=O)N1CCN(c2ccc(C(F)(F)F)cn2)CC1)C(=O)NO [compound 60] | – | – | – | 89 | –
6 | 0.73 | CC(C)[C@@H](NS(=O)(=O)N1CCN(c2ccc(OCc3ccccc3)cc2)CC1)C(=O)NO [compound 74, N-hydroxy-2-(R)-{[4-(4-benzyloxyphenyl)piperazine-1-sulfonyl]amino}-3-methylbutyramide] | – | – | – | – | 46
7 | – | CC(C)[C@@H](NS(=O)(=O)N1CCC(Oc2ccc(Cl)cn2)CC1)C(=O)NO [compound 100, N-hydroxy-2-(R)-{[4-(5-chloropyridin-2-yloxy)piperidine-1-sulfonyl]amino}-3-methybutyramide] | – | – | – | 68 | 40
8 | 0.073 | CC(C)[C@@H](NS(=O)(=O)N1CCC(Oc2ccc(F)cc2)CC1)C(=O)NO [compound 179, N-hydroxy-2-(R)-{[4-(4-fluorophenoxy)piperidine-1-sulfonyl]amino}-3-methylbutyramide] | – | – | < 15 | – | 63
9 | 0.063 | O=C(c1ccc(Cl)cc1)C1CCN(S(=O)(=O)N2CCCC[C@@H]2C(=O)NO)CC1 [compound 242, N-hydroxy-1-[4-(4-chlorobenzoyl)piperidine-1-sulfonyl]piperidine-2-(R)-carboxamide] | – | – | 85 | 27 | –
10 | 340 | N#Cc1ccc2[nH]cc(C3CCN(S(=O)(=O)N4CCCC[C@@H]4C(=O)NO)CC3)c2c1 [compound 294, N-hydroxy-1-[4-(5-cyanoindol-3-yl)piperidine-1-sulfonyl]piperidine-2-(R)-carboxamide] | 97 | 90 | – | – | –
11 | 500 | CN(C)C(=O)N1CCN(S(=O)(=O)N2CCC(c3c[nH]c4c(F)c(F)c(F)c(F)c34)CC2)[C@@H](C(=O)NO)C1 [compound 309, N-hydroxy-4-(N,N-dimethylaminocarbonyl)-1-[4-(4,5,6,7-tetrafluoroindol-3-yl)piperidine-1-sulfonyl]piperazine-2-(R)-carboxamide] | 94 | 46 | – | – | –
12 | – | N#Cc1ccc2[nH]cc(C3CCN(S(=O)(=O)N4CCN(C(=O)N5CCOCC5)C[C@@H]4C(=O)NO)CC3)c2c1 [compound 321, N-hydroxy-4-(morpholin-4-ylcarbonyl)-1-[4-(5-cyanoindol-3-yl)piperdine-1-sulfonyl]piperazine-2-(R)-carboxamide] | 93 | 50 | – | – | –
